Assay results from publication PMC5222549 (Journal of immunology (Baltimore, Md. : 1950), 2016).

T1: mCRT(1-351) (Mus musculus, UniProt P14211)
T1 sequence (P14211 18-368): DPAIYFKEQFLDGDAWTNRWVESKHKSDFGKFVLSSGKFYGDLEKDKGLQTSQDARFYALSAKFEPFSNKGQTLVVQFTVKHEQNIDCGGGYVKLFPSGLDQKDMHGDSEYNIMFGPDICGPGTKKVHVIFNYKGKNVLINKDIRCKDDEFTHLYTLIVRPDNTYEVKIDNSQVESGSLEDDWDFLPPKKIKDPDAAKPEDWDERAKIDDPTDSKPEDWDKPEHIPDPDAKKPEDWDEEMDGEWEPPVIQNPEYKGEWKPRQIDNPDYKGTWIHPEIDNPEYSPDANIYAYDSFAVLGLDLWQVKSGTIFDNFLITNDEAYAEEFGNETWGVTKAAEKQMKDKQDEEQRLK

T2: mCRT(1-351 ΔP) (Mus musculus, UniProt P14211, DEL204-300)
T2 sequence (P14211 with tags, fused parts or gaps DEL204-300): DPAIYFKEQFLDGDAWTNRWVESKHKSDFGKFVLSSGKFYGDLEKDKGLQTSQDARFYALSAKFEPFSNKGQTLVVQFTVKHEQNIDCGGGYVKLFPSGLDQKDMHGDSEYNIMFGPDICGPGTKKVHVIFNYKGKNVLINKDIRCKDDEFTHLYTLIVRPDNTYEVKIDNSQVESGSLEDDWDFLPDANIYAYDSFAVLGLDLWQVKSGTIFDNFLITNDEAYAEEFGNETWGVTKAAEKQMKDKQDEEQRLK

T3: mCRT(ΔP) (Mus musculus, UniProt P14211, DEL204-300)
T3 sequence (P14211 with tags, fused parts or gaps DEL204-300): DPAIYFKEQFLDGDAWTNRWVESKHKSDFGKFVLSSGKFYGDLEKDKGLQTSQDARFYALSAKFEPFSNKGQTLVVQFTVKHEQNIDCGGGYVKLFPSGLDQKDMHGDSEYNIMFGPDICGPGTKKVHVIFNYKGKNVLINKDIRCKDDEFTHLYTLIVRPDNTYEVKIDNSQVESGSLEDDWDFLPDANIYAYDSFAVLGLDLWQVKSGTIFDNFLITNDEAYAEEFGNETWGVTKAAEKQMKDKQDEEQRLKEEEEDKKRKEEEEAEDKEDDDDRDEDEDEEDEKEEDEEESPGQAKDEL

T4: mCRT(WT) (Mus musculus, UniProt P14211)
T4 sequence (P14211 18-416): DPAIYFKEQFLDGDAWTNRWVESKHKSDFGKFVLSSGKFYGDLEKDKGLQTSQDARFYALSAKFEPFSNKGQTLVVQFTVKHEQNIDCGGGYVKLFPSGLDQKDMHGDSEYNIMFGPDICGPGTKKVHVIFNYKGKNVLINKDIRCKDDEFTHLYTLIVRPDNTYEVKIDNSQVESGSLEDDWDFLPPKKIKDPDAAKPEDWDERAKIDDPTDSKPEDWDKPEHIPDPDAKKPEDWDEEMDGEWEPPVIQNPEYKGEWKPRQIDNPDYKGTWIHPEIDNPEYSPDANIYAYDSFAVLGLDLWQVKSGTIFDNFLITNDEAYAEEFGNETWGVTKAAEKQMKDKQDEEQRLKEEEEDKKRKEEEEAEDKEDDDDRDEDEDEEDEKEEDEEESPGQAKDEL

T5: GB1-mCRT(C) (Mus musculus, UniProt P14211)
T5 sequence (P14211 357-416): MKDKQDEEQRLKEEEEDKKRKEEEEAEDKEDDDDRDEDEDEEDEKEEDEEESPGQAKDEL

T6: ERp57 (UniProt P30101 25-505)
T6 sequence (looked up): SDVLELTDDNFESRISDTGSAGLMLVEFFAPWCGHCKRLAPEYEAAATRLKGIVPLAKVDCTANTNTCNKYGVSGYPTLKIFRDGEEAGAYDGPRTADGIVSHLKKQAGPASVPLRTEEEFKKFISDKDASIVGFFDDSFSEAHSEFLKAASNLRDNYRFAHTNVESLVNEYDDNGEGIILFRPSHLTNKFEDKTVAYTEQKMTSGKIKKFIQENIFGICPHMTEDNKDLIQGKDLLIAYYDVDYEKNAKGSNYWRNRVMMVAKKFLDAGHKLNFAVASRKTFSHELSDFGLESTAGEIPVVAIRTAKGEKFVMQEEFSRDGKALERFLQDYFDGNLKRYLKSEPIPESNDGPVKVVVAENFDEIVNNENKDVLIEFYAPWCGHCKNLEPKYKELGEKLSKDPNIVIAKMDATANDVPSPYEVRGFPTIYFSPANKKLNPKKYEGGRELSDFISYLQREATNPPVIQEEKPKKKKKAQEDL


How the values were obtained:
mCRT(1-351) = molecular target: T1, mCRT(1-351); test: isothermal titration calorimetry, lipid vesicles titrated into […] protein; format: binding
mCRT(1-351 ΔP) = molecular target: T2, mCRT(1-351 ΔP); test: as above; format: binding
mCRT(ΔP) = molecular target: T3, mCRT(ΔP); test: as above; format: binding
mCRT(WT) = molecular target: T4, mCRT(WT); test: as above; format: binding
GB1-mCRT(C) = molecular target: T5, GB1-mCRT(C); test: as above; format: binding
[1] = molecular target: GB1-mCRT(P), the P-domain of murine calreticulin (residues 187-283) fused with the B1 domain of protein G (mouse); test: BLI
ERp57 = molecular target: T6, ERp57; test: BLI

Row | Molecule | Kd (mCRT(1-351)) | Kd (mCRT(1-351 ΔP)) | Kd (mCRT(ΔP)) | Kd (mCRT(WT)) | Kd (GB1-mCRT(C)) | Kd [1] | Kd (ERp57)
1 | CCCCCCCC/C=C\CCCCCCCC(=O)O[C@H](COC(=O)CCCCCCCCCCCCCCC)COP(=O)([O-])OCC[N+](C)(C)C [POPC] | 53.4 ± 13.8 µM | 42.6 ± 11.5 µM | 92.5 ± 11 µM | 158 ± 37.3 µM |  |  | 
2 | CCCCCCCC/C=C\CCCCCCCC(=O)O[C@H](COC(=O)CCCCCCCCCCCCCCC)COP(=O)(O)OC[C@H](N)C(=O)O [POPS] | 32 ± 5.54 µM | 20.2 ± 4.08 µM | 7.5 ± 5.69 µM | 12.1 ± 4.49 µM | 28.2 ± 4.3 µM |  | 
3 | ERp57 (from UniProt P30101 25-505) (natural protein) |  |  |  |  |  | 101 nM | 
4 | wild type murine calreticulin, mCRT(WT) (natural protein, mouse, UniProt P14211 18-416, looked up) DPAIYFKEQFLDGDAWTNRWVESKHKSDFGKFVLSSGKFYGDLEKDKGLQTSQDARFYALSAKFEPFSNKGQTLVVQFTVKHEQNIDCGGGYVKLFPSGLDQKDMHGDSEYNIMFGPDICGPGTKKVHVIFNYKGKNVLINKDIRCKDDEFTHLYTLIVRPDNTYEVKIDNSQVESGSLEDDWDFLPPKKIKDPDAAKPEDWDERAKIDDPTDSKPEDWDKPEHIPDPDAKKPEDWDEEMDGEWEPPVIQNPEYKGEWKPRQIDNPDYKGTWIHPEIDNPEYSPDANIYAYDSFAVLGLDLWQVKSGTIFDNFLITNDEAYAEEFGNETWGVTKAAEKQMKDKQDEEQRLKEEEEDKKRKEEEEAEDKEDDDDRDEDEDEEDEKEEDEEESPGQAKDEL |  |  |  |  |  |  | 282 ± 38 nM
